Data as given in patent publication US20240270821A1, “GIP/GLP1/GCG TRI-RECEPTOR AGONISTS AND USES THEREOF” (priority 2023, published 2024).
Read-outs that look alike come from different tables or passages of the source. One block for each molecule: values may come before it. Starred links: 1 amine or outer side, 2 acyl side, 3 side chain; linkers in the order of their positions; H or OH if unused. Non-standard residues stand in square brackets, D forms with d. Residues, ends and D or L forms follow the SMILES beside them. Groups on a side chain read outwards from the residue. *: point of attachment. C20 diacid = O=C(O)CCCCCCCCCCCCCCCCCCC(=O)*; C18 diacid = O=C(O)CCCCCCCCCCCCCCCCC(=O)*; αMePhe(2-F) = C[C@](N)(Cc1ccccc1F)C(=O)O; γGlu = O=C(O)[C@H](CCC(=O)[*:2])N[*:1]; αMe4Pal = C[C@](N)(Cc1ccncc1)C(=O)O; αMeY = C[C@](N)(Cc1ccc(O)cc1)C(=O)O; 4Pal = N[C@@H](Cc1ccncc1)C(=O)O; αMeL = CC(C)C[C@](C)(N)C(=O)O; αMeS = C[C@](N)(CO)C(=O)O; Orn = NCCC[C@H](N)C(=O)O; AEEA = NCCOCCOCC(=O)O; Aib = CC(C)(N)C(=O)O

Legend:
Type in all cases: cell-based
[1] = target: T1, hGIPR (Homo sapiens, UniProt P48546); experiment: Functional cAMP activation in the presence of 0.1% casein (no HSA); details: read-out: Relative cAMP EC50, hGIPR;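 also: intracellular cAMP rise after 30 min at 37 °C read by HTRF against a standard curve, scaled between buffer alone (0%) and top control ligand concentration (100%), four-parameter fit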
T1 sequence (P48546 22-466): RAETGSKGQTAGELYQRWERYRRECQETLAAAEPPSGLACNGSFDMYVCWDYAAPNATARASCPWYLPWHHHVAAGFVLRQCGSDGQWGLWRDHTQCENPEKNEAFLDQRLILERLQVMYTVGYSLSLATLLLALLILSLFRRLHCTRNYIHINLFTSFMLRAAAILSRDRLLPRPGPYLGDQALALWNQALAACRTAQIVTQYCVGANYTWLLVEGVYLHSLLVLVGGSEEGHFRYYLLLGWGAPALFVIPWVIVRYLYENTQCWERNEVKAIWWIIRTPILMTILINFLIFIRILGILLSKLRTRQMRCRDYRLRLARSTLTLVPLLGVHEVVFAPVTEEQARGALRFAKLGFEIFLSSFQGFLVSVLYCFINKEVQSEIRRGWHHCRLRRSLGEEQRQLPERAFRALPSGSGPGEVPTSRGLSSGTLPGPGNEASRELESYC

[2] = target: T1, hGIPR; experiment: Functional cAMP activity in the presence of 1% HSA; details: read-out: cAMP Rel EC50, hGIPR
[3] = target: human GcgR (Homo sapiens, UniProt P47871); experiment: Functional cAMP activity in the presence of 1% HSA; details: read-out: cAMP Rel EC50, hGcgR
Chain of human GcgR (P47871 26-477): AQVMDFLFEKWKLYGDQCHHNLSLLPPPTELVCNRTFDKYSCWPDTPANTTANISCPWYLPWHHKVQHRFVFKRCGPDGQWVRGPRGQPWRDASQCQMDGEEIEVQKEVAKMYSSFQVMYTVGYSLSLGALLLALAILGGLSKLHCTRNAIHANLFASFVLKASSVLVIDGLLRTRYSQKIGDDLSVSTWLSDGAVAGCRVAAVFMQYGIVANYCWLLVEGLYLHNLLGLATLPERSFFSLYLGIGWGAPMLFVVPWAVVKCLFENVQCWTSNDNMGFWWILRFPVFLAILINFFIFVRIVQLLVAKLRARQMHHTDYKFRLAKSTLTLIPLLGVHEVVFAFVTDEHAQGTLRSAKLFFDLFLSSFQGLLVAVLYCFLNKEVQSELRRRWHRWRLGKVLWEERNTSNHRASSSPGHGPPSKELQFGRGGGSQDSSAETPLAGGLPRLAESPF

[4] = target: hGcgR (Homo sapiens, UniProt P47871); experiment: Functional cAMP activation in the presence of 0.1% casein (no HSA); details: read-out: Relative cAMP EC50, hGcgR;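 also: intracellular cAMP rise after 30 min at 37 °C, read by HTRF against a cAMP standard curve, scaled from buffer only (0%) to maximal control ligand response (100%)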
Chain of hGcgR (P47871 26-477): as above

[5] = target: T2, hGLP-1R (Homo sapiens, UniProt P43220); experiment: Functional cAMP activity in the presence of 1% HSA; details: read-out: cAMP Rel EC50, hGLP-1R
T2 sequence (P43220 24-463): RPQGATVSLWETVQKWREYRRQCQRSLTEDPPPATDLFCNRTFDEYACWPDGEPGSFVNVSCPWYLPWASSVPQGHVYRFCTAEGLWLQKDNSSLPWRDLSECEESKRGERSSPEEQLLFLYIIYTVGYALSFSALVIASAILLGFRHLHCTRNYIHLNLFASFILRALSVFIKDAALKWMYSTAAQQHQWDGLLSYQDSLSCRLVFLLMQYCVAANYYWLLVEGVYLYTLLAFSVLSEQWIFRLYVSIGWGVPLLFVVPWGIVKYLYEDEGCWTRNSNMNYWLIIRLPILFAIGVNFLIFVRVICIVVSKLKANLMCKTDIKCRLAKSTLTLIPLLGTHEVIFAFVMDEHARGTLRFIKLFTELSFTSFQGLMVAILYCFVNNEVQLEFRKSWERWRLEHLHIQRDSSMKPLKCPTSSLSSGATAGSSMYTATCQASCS

[6] = target: T2, hGLP-1R; experiment: Functional cAMP activation in the presence of 0.1% casein (no HSA); details: read-out: Relative cAMP EC50, hGLP-1R;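 also: intracellular cAMP rise after 30 min at 37 °C read by HTRF, normalized between buffer only (0%) and maximal control ligand (100%), four-parameter variable-slope fit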
[7] = in the presence of 0.1% casein (no HSA), geometric mean

Molecule: H-Y[Aib]QGT[αMePhe(2-F)]TSD[4Pal][αMeS]I[αMeL]LD[Orn]K([γGlu-γGlu-C18 diacid])AQ[Aib][Orn]FI[dE][αMeY]LAEGGPSSGEPPPSGTGE-NH2 [Example 545]
EC50 [1]: 0.0432 nM | EC50 [2]: 2.74 nM | EC50 [3]: 180 nM | EC50 [4]: 2.71 nM | EC50 [5]: 40.2 nM | EC50 [6]: 0.602 nM

Molecule: H-Y[Aib]QGTFTSD[4Pal]SQ[αMeL]LDKK([AEEA-γGlu-C18 diacid])AQ[αMe4Pal]AFIEYLIE[Aib]GPSSGAPPPSG[4Pal]-NH2 [Example 835]
EC50 [1, 7]: 0.382 nM | EC50 [2]: 16.8 nM | EC50 [3]: 558 nM | EC50 [4, 7]: 3.83 nM | EC50 [5]: 274 nM | EC50 [6, 7]: 2.84 nM

Molecule: H-Y[Aib]QGTFTSDYSK[αMeL]LDKK([AEEA-γGlu-C20 diacid])AQQAFIEYLIAGGPSSGEPPPSGD-NH2 [Example 337]
EC50 [1, 7]: 0.332 nM | EC50 [2]: 99.1 nM | EC50 [3]: 2950 nM | EC50 [4, 7]: 5.95 nM | EC50 [5]: 272 nM | EC50 [6, 7]: 0.686 nM

Molecule: H-Y[Aib]QGTFTSD[4Pal]SR[αMeL]LDKK([AEEA-γGlu-C18 diacid])AQ[αMe4Pal]AFIE[αMe4Pal]LIEGGPSSGAPPPSGSEE-NH2 [Example 956]
EC50 [1, 7]: 0.26 nM | EC50 [2]: 32.1 nM | EC50 [3]: 406 nM | EC50 [4, 7]: 2.17 nM | EC50 [5]: 643 nM | EC50 [6, 7]: 4.83 nM

Continued, values first:

EC50 [1]: 0.0122 nM | EC50 [2]: 2.06 nM | EC50 [3]: 73.6 nM | EC50 [4]: 1.21 nM | EC50 [5]: 12.6 nM | EC50 [6]: 0.179 nM
Molecule: CC[C@H](C)[C@H](NC(=O)[C@H](CC(C)C)NC(=O)[C@H](Cc1ccc(O)cc1)NC(=O)[C@H](CCC(=O)O)NC(=O)[C@@H](NC(=O)[C@H](Cc1ccccc1)NC(=O)[C@H](CCCN)NC(=O)C(C)(C)NC(=O)[C@H](CCC(N)=O)NC(=O)[C@H](C)NC(=O)[C@H](CCCCNC(=O)COCCOCCNC(=O)CC[C@H](NC(=O)CCCCCCCCCCCCCCCCC(=O)O)C(=O)O)NC(=O)[C@H](CCCN)NC(=O)[C@H](CC(=O)O)NC(=O)[C@H](CC(C)C)NC(=O)[C@](C)(CC(C)C)NC(=O)[C@@H](NC(=O)[C@](C)(CO)NC(=O)[C@H](Cc1ccncc1)NC(=O)[C@H](CC(=O)O)NC(=O)[C@H](CO)NC(=O)[C@@H](NC(=O)[C@](C)(Cc1ccccc1F)NC(=O)[C@@H](NC(=O)CNC(=O)[C@H](CCC(N)=O)NC(=O)C(C)(C)NC(=O)[C@@H](N)Cc1ccc(O)cc1)[C@@H](C)O)[C@@H](C)O)[C@@H](C)CC)[C@@H](C)CC)C(=O)N[C@@H](CCC(=O)O)C(=O)NCC(=O)NCC(=O)N1CCC[C@H]1C(=O)N[C@@H](CO)C(=O)N[C@@H](CO)C(=O)NCC(=O)N[C@@H](CCC(=O)O)C(=O)N1CCC[C@H]1C(=O)N1CCC[C@H]1C(=O)N1CCC[C@H]1C(=O)N[C@@H](CCC(=O)O)C(N)=O [Example 459] (H-Y[Aib]QGT[αMePhe(2-F)]TSD[4Pal][αMeS]I[αMeL]LD[Orn]K([AEEA-γGlu-C18 diacid])AQ[Aib][Orn]FIEYLIEGGPSSGEPPPE-NH2)

EC50 [1, 7]: 0.0346 nM | EC50 ([2]; HEK-293 clonal cells expressing hGIPR, in the presence of 1% HSA, geometric mean of relative EC50): 7.77 nM | EC50 ([3]; HEK-293 clonal cells expressing hGcgR, in the presence of 1% HSA, geometric mean of relative EC50): 150 nM | EC50 [4, 7]: 1.17 nM | EC50 ([5]; HEK-293 clonal cells expressing hGLP-1R, in the presence of 1% HSA, geometric mean of relative EC50): 30.6 nM | EC50 [6, 7]: 0.354 nM
Molecule: CC[C@H](C)[C@H](NC(=O)[C@H](Cc1ccccc1)NC(=O)[C@H](CCCN)NC(=O)C(C)(C)NC(=O)[C@H](CCC(N)=O)NC(=O)[C@H](C)NC(=O)[C@H](CCCCNC(=O)COCCOCCNC(=O)CC[C@H](NC(=O)CCCCCCCCCCCCCCCCC(=O)O)C(=O)O)NC(=O)[C@H](CCCN)NC(=O)[C@H](CC(=O)O)NC(=O)[C@H](CC(C)C)NC(=O)[C@](C)(CC(C)C)NC(=O)[C@@H](NC(=O)[C@](C)(CO)NC(=O)[C@H](Cc1ccncc1)NC(=O)[C@H](CC(=O)O)NC(=O)[C@H](CO)NC(=O)[C@@H](NC(=O)[C@](C)(Cc1ccccc1F)NC(=O)[C@@H](NC(=O)CNC(=O)[C@H](CCC(N)=O)NC(=O)C(C)(C)NC(=O)[C@@H](N)Cc1ccc(O)cc1)[C@@H](C)O)[C@@H](C)O)[C@@H](C)CC)C(=O)N[C@H](CCC(=O)O)C(=O)N[C@@](C)(Cc1ccc(O)cc1)C(=O)N[C@@H](CC(C)C)C(=O)N[C@@H](CC(C)C)C(=O)N[C@@H](CCC(=O)O)C(=O)NCC(=O)NCC(=O)N1CCC[C@H]1C(=O)N[C@@H](CO)C(=O)N[C@@H](CO)C(=O)NC(C)(C)C(=O)N[C@@H](CCC(=O)O)C(=O)N1CCC[C@H]1C(=O)N1CCC[C@H]1C(=O)N1CCC[C@H]1C(=O)N[C@@H](CCC(=O)O)C(N)=O [Example 380] (H-Y[Aib]QGT[αMePhe(2-F)]TSD[4Pal][αMeS]I[αMeL]LD[Orn]K([AEEA-γGlu-C18 diacid])AQ[Aib][Orn]FI[dE][αMeY]LLEGGPSS[Aib]EPPPE-NH2)

EC50 [1]: 0.015 nM | EC50 [2]: 0.507 nM | EC50 [3]: 155 nM | EC50 [4]: 1.59 nM | EC50 [5]: 27.1 nM | EC50 [6]: 0.348 nM
Molecule: H-Y[Aib]QGT[αMePhe(2-F)]TSD[4Pal][αMeS]I[αMeL]LD[Orn]K([γGlu-γGlu-C18 diacid])AQ[αMe4Pal]EFI[dE][αMeY]LVEGGPSSGEPPPSGGGE-NH2 [Example 739]
